Reference: patent US20160279236A1, “USE OF RAPAMYCIN AS VACCINE ADJUVANT AND PREPARATION METHOD THEREFOR” (INSTITUT PASTEUR OF SHANGHAI, CHINESE ACADEMY OF SCIENCES, priority 2013, published 2016)
“Also recorded” adds a separate entry of the source.

Experiments:
[1] = system: immune response against HCV outer membrane protein E2; assay: HCV E2 protein immunization with adjuvants: T cell and antibody responses; type: in vivo, C57BL/6 mice; conditions: E2 protein 20 μg/mouse; Alum 200 μg, MPL 10 μg, rapamycin 100 μg per mouse; IFNγ ELISA of E2-stimulated spleen cells, FIG. 7A
Protocol: C57BL/6 mice were immunized using purified E2 protein (20 μg/mouse, bought from eEnzyme company, Cat No. HCV-E21b) as antigen in mixture with Alum (200 μg/mouse), MPL (10 μg/mouse), rapamycin (100 μg/mouse), MPL (10 µg/mouse)+rapamycin (100 μg/mouse) respectively, and after 4 weeks, were boosted by the same antigen+adjuvant program. 8 weeks after the secondary immunization, mice were immunized for one time with E2 protein (without MPL or rapamycin) (5 μg/mouse), and the mice were killed after 2 weeks. Spleen cells were taken to determine immune response of T cells (FIG. 7A), and serum was taken to determine antibody titers (FIG. 7B). The spleen cells (5×10^5 cells) were stimulated with 10 μg/ml of E2 protein. After 48 hours, the content of IFNγ in the supernatant was determined by enzyme linked immunosorbent assay (ELISA). […] Meanwhile, antibody response induced by the combination of rapamycin and MPL was also the best, which was better than MPL or alum alone (FIG. 7B).

BMDCs [2] = assay: Cytokine production (ELISA) in LPS-stimulated BMDCs pre-treated with rapamycin; type: cell-based, C57BL/6 mice
Protocol: Bone marrow stem cells from 6-8 weeks aged C57BL/6 mice were taken, and erythrocytes were removed by using ammonium chloride lysate (0.15 M NH4Cl, 1 mM […], 0.1 mM Na2EDTA, pH7.3), and then suspension-cultured at a cell density of 10^6 cells/mL in a dendritic cell (bone-marrow derived dendritic cell, BMDC) differentiation medium (formulation of which was: RPMI 1640 complete medium (comprising 5% (v/v) FBS and 1% (v/v) pen strep), with 20 ng/ml GM-CSF, 10 ng/ml IL-4, 2 mM L-glutamine and 200 μM β-mercaptoethanol being added). After differentiation for 7 days, the cells were purified with CD11c magnetic beads to obtain BMDCs. The purified BMDCs were resuspended in a fresh dendritic cell culture medium (10^6 cells/ml), and inoculated into 24-well plate with 500 μL per well 100 nM of rapamycin or DMSO (control) were used to pre-treat the cells for 1 hour, and then the cells were stimulated with 100 ng/ml LPS for 24 hours. The supernatant was taken and the amount of IL-12 was measured by ELISA.

[3] = system: HBsAg-specific antibody and T cell responses; assay: HBsAg immunization with Compositions 1-3 (different amounts of rapamycin + MPL); type: in vivo, mice
Protocol: Composition 1, comprising (dosage for one mouse): rapamycin 5 μg, MPL 10 μg, and PBS 0.2 ml;
Composition 2, comprising (dosage for one mouse): rapamycin 20 μg, MPL 10 μg, and PBS 0.2 ml;
Composition 3, comprising (dosage for one mouse): rapamycin 100 μg, MPL 10 μg, and PBS 0.2 mL.
Mice were immunized with Compositions 1-3 in mixture with HBsAg (5 μg, dosage for one mouse) respectively, and were boosted 3 weeks after the primary immunization. The mice were killed after one week, and the serum was prepared to determine the content of HBsAg-specific IgG1, IgG2b and IgG2c (FIG. 5). Meanwhile, spleen cells (5×10^5 cells) were respectively stimulated by using 10 μg/ml of CD8^+ T cell epitope peptide ([…] or VWLSVIWM) and CD4^+ T cell epitope peptide ([…]), and after 48 hours, enzyme linked immunosorbent assays (ELISA) was used to determine the content of IFNγ in the supernatant (FIG. 5b). […] Moreover, at all of the three concentrations, rapamycin has increased T cell response induced by MPL, especially the activation of CD4^+ and CD8^+ T cells which secrete IFN-γ (FIG. 5b).

BMDMs = assay: Real-time quantitative PCR of gene expression in LPS-stimulated BMDMs; type: cell-based, C57BL/6 mice; conditions: 100 nM rapamycin
Protocol: Bone marrow stem cells of 6-8 weeks aged C57BL/6 mice were taken, and the cells are cultivated at 10^6 cells/mL cell density in bone marrow-derived macrophage (BMDM) differentiation medium (formulation of which was: RPMI 1640 complete medium added with 30% (v/v) L929 conditioned medium and 1% (v/v) pen/strep). After differentiation for 4 days, the old culture medium (comprising suspended cells) was removed and fresh BMDM differentiation medium was added. The adhered BMDMs were collected on the 7th day of differentiation and used in in vitro experiment.
The BMDMs were pre-treated with 100 nM of rapamycin or DMSO for 1 hour, and then the cells were stimulated with 100 ng/ml LPS […]. The cells were collected at 1, 2, 4 and 8 hours, and were cryopreserved in a refrigerator at −80° C. for the extraction and preparation of RNA.
TRIZOL (Invitrogen) method was used to extract RNA of BMDM, and Superscript™ III Reverse Transcriptase Kit (Invitrogen) was used to respectively reverse transcribe 1 μg RNA so as to synthesize the first-strand cDNA for Real-time quantitative PCR determine of gene expression levels. The primers for Real-time quantitative PCR are shown in table 1. ΔΔ method was used to calculate the relative expression level of the determined gene compared with GAPDH.

BMDCs [4] = assay: IL-12 expression (ELISA) in BMDCs stimulated by Toll-like receptor agonists with or without rapamycin; type: cell-based, mouse; conditions: rapamycin 100 nM 1 hour
Protocol: The present inventors have firstly studied the influence of rapamycin on IL-12 expression induced by a variety of Toll-like receptors agonist including polyI:C by in vitro experiments. Dendritic cells differentiated from mouse bone marrow cells (BMDCs differentiated for 7 days with 20 ng/ml GM-CSF and 10 ng/ml IL-4) were pre-treated with or without rapamycin (100 nM) for 1 hour, and stimulated by LPS (100 ng/ml), MPL (1 μg/ml), R848 (1 μg/ml) and polyI:C (20 μg/ml) respectively for 24 hours, and cell culture media were taken to determine the content of IL-12 by ELISA.

[5] = BMDCs, 100 nM rapamycin, 100 ng/ml LPS
[6] = 5 μg of rapamycin + MPL 10 μg, HBsAg 5 μg per mouse
[7] = 100 ng/ml LPS, during 4 hours of LPS stimulation, relative to GAPDH

CO[C@H]1C[C@@H]2CC[C@@H](C)[C@@](O)(O2)C(=O)C(=O)N2CCCC[C@H]2C(=O)O[C@H]([C@H](C)C[C@@H]2CC[C@@H](O)[C@H](OC)C2)CC(=O)[C@H](C)/C=C(\C)[C@@H](O)[C@@H](OC)C(=O)[C@H](C)C[C@H](C)/C=C/C=C/C=C/1C [rapamycin]
immune response of IFN-γ secreting T cells against HCV E2 [1]: inferior effect | amount of IL-12, increase compared with the control group (BMDCs [2]; 100 nM rapamycin pre-treatment 1 hour, 100 ng/ml LPS 24 hours, supernatant ELISA, DMSO control): more than 3 times | LPS-induced IL-12 production (BMDCs [2]; [5]): enhanced; also recorded: promote | induced-secretion of IL-23 (BMDCs [2]; [5]): remarkably increase; also recorded: enhanced; also recorded: promote | production of IL-10 (BMDCs [2]; [5]): inhibit the production; also recorded: inhibited | LPS-induced IL-12 production (BMDCs [2]; BMDCs, 100 nM rapamycin, 100 ng/ml LPS, listed as Rapamycin): significantly enhance | antibody titers induced by MPL [3, 6]: significantly increase | increase of secretion of IgG2b induced by MPL [3, 6]: ~5 times | increase of secretion of IgG2c induced by MPL [3, 6]: ~5 times | T cell response induced by MPL (IFN-γ secreting CD4+ and CD8+ T cells) ([3]; all three amounts of rapamycin (5, 20, 100 μg) + MPL 10 μg, IFNγ ELISA of peptide-stimulated spleen cells): increased | HBsAg-specific antibody responses enhanced by MPL ([3]; different amounts of rapamycin, FIG. 5a): increased | antibodies induced by MPL ([3]; rapamycin raised to 20 or 100 μg + MPL 10 μg, HBsAg 5 μg per mouse): further enhanced | MPL-induced antibody titers and T cell response, dose dependence ([3]; rapamycin within the range of 5-100 μg): dose-dependent manner | expression of IL-10 (BMDMs; [7]): inhibit the expression | transcriptional expression of IL-12a (BMDMs; [7]): increased the transcriptional expression; also recorded: promote the transcript expression | transcriptional expression of IL-12b (BMDMs; [7]): increased the transcriptional expression; also recorded: promote the transcript expression | transcriptional expression of IL-23a (BMDMs; [7]): increased the transcriptional expression; also recorded: promote the transcript expression | transcription and expression of CXCL2 (BMDMs; LPS): did not affect the transcription and expression | transcription and expression of TNFα (BMDMs; LPS): did not affect the transcription and expression | expression of CD40 (BMDMs; upon stimulation of LPS): no remarkable influence | expression of CD80 (BMDMs; upon stimulation of LPS): no remarkable influence | expression of CD86 (BMDMs; upon stimulation of LPS): no remarkable influence | expression of PD-L1 (BMDMs; upon stimulation of LPS): remarkably decreased the expression; also recorded: inhibit the expression | IL-12 expression induced by lipopolysaccharide (BMDCs [4]; LPS 100 ng/ml 24 hours): enhance | IL-12 expression induced by MPL (BMDCs [4]; MPL 1 μg/ml 24 hours): enhance; also recorded: effectively enhanced | IL-12 expression induced by R848 (BMDCs [4]; R848 1 μg/ml 24 hours): effectively enhanced | IL-12 expression induced by polyI:C (BMDCs [4]; polyI:C 20 μg/ml 24 hours): effectively enhanced
